Laboratory results as given in PubChem BioAssay (NCI).
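Exposure lasted 48 hours, with cells grown in 96-well plates and compounds tested at five concentrations. Abbreviation: GI50, concentration required for 50% inhibition of growth. The concentration for full growth arrest is given as TGI.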

Experiments:
Experiment in all cases: DTP human tumour cell line panel, 48 h
786-0 renal = system: 786-0 renal
A498 renal = system: A498 renal
A549 NSCLC = system: A549 NSCLC
ACHN renal = system: ACHN renal
BT-549 breast = system: BT-549 breast
CAKI-1 renal = system: CAKI-1 renal
CCRF-CEM leukemia = system: CCRF-CEM leukemia
COLO 205 colon = system: COLO 205 colon
DU-145 prostate = system: DU-145 prostate
EKVX NSCLC = system: EKVX NSCLC
HCC-2998 colon = system: HCC-2998 colon
HCT-116 colon = system: HCT-116 colon
HCT-15 colon = system: HCT-15 colon
HL-60(TB) leukemia = system: HL-60(TB) leukemia
HOP-62 NSCLC = system: HOP-62 NSCLC
HOP-92 NSCLC = system: HOP-92 NSCLC
HS 578T breast = system: HS 578T breast
HT29 colon = system: HT29 colon
IGROV1 ovarian = system: IGROV1 ovarian
K-562 leukemia = system: K-562 leukemia
KM12 colon = system: KM12 colon
LOX IMVI melanoma = system: LOX IMVI melanoma
M14 melanoma = system: M14 melanoma
MALME-3M melanoma = system: MALME-3M melanoma
MCF7 breast = system: MCF7 breast
MDA-MB-231 breast = system: MDA-MB-231 breast
MDA-MB-435 = system: MDA-MB-435
MOLT-4 leukemia = system: MOLT-4 leukemia
NCI-H226 lung = system: NCI-H226 lung
NCI-H23 lung = system: NCI-H23 lung
NCI-H460 lung = system: NCI-H460 lung
NCI-H522 lung = system: NCI-H522 lung
NCI/ADR-RES ovarian = system: NCI/ADR-RES ovarian
OVCAR-3 ovarian = system: OVCAR-3 ovarian
OVCAR-4 ovarian = system: OVCAR-4 ovarian
OVCAR-5 ovarian = system: OVCAR-5 ovarian
OVCAR-8 ovarian = system: OVCAR-8 ovarian
PC-3 prostate = system: PC-3 prostate
RPMI-8226 leukemia = system: RPMI-8226 leukemia
RXF 393 renal = system: RXF 393 renal
SF-268 CNS = system: SF-268 CNS
SF-295 CNS = system: SF-295 CNS
SF-539 CNS = system: SF-539 CNS
SK-MEL-2 melanoma = system: SK-MEL-2 melanoma
SK-MEL-28 melanoma = system: SK-MEL-28 melanoma
SK-MEL-5 melanoma = system: SK-MEL-5 melanoma
SK-OV-3 ovarian = system: SK-OV-3 ovarian
SN12C renal = system: SN12C renal
SNB-19 CNS = system: SNB-19 CNS
SNB-75 CNS = system: SNB-75 CNS
SR leukemia = system: SR leukemia
SW-620 colon = system: SW-620 colon
T-47D breast = system: T-47D breast
TK-10 renal = system: TK-10 renal
U251 CNS = system: U251 CNS
UACC-257 melanoma = system: UACC-257 melanoma
UACC-62 melanoma = system: UACC-62 melanoma
UO-31 renal = system: UO-31 renal

COc1ccc(/C=N\NC(=O)CN2CCN(c3cc4c(cc3F)c(=O)c(C(=O)N/N=C/c3ccc(OC)c(OC)c3)cn4C3CC3)CC2)cc1OC
GI50 (786-0 renal): 4.83 µM | TGI (786-0 renal): 22.6 µM | GI50 (A498 renal): 1.4 µM | TGI (A498 renal): 23.4 µM | GI50 (A549 NSCLC): 4.3 µM | TGI (A549 NSCLC): 75.9 µM | GI50 (ACHN renal): > 100 µM | TGI (ACHN renal): > 100 µM | GI50 (BT-549 breast): 1.78 µM | TGI (BT-549 breast): 3.89 µM | GI50 (CAKI-1 renal): 9.49 µM | TGI (CAKI-1 renal): 91.9 µM | GI50 (CCRF-CEM leukemia): 3.31 µM | TGI (CCRF-CEM leukemia): > 100 µM | GI50 (COLO 205 colon): 3.38 µM | TGI (COLO 205 colon): 14.8 µM | GI50 (DU-145 prostate): 3.54 µM | TGI (DU-145 prostate): 12 µM | GI50 (EKVX NSCLC): 6.06 µM | TGI (EKVX NSCLC): > 100 µM | GI50 (HCC-2998 colon): 3.52 µM | TGI (HCC-2998 colon): 12.7 µM | GI50 (HCT-116 colon): 3.15 µM | TGI (HCT-116 colon): 11.4 µM | GI50 (HCT-15 colon): > 100 µM | TGI (HCT-15 colon): > 100 µM | GI50 (HL-60(TB) leukemia): 3.36 µM | TGI (HL-60(TB) leukemia): 18.2 µM | GI50 (HOP-62 NSCLC): 2.74 µM | TGI (HOP-62 NSCLC): 9.54 µM | GI50 (HOP-92 NSCLC): 2.25 µM | TGI (HOP-92 NSCLC): 6.9 µM | GI50 (HS 578T breast): 2.51 µM | TGI (HS 578T breast): 8.99 µM | GI50 (HT29 colon): 3.46 µM | TGI (HT29 colon): > 100 µM | GI50 (IGROV1 ovarian): 3.1 µM | TGI (IGROV1 ovarian): 17.1 µM | GI50 (K-562 leukemia): 3.81 µM | TGI (K-562 leukemia): > 100 µM | GI50 (KM12 colon): 3.42 µM | TGI (KM12 colon): 10.7 µM | GI50 (LOX IMVI melanoma): 3.22 µM | TGI (LOX IMVI melanoma): 11.3 µM | GI50 (M14 melanoma): 3.53 µM | TGI (M14 melanoma): 11.9 µM | GI50 (MALME-3M melanoma): 1.81 µM | TGI (MALME-3M melanoma): 3.62 µM | GI50 (MCF7 breast): 3.21 µM | TGI (MCF7 breast): > 100 µM | GI50 (MDA-MB-231 breast): 2.33 µM | TGI (MDA-MB-231 breast): 6.31 µM | GI50 (MDA-MB-435): 2.02 µM | TGI (MDA-MB-435): 3.97 µM | GI50 (MOLT-4 leukemia): 3.56 µM | TGI (MOLT-4 leukemia): > 100 µM | GI50 (NCI-H226 lung): 4.44 µM | TGI (NCI-H226 lung): 24 µM | GI50 (NCI-H23 lung): 3.1 µM | TGI (NCI-H23 lung): 10.8 µM | GI50 (NCI-H460 lung): 2.6 µM | TGI (NCI-H460 lung): 6.87 µM | GI50 (NCI-H522 lung): 3.66 µM | TGI (NCI-H522 lung): > 100 µM | GI50 (NCI/ADR-RES ovarian): > 100 µM | TGI (NCI/ADR-RES ovarian): > 100 µM | GI50 (OVCAR-3 ovarian): 2.65 µM | TGI (OVCAR-3 ovarian): 7.26 µM | GI50 (OVCAR-4 ovarian): 3.17 µM | TGI (OVCAR-4 ovarian): 11 µM | GI50 (OVCAR-5 ovarian): 2.39 µM | TGI (OVCAR-5 ovarian): 6.94 µM | GI50 (OVCAR-8 ovarian): 3.81 µM | TGI (OVCAR-8 ovarian): 81.1 µM | GI50 (PC-3 prostate): 2.76 µM | TGI (PC-3 prostate): 9.53 µM | GI50 (RPMI-8226 leukemia): 2.77 µM | TGI (RPMI-8226 leukemia): 8.82 µM | GI50 (RXF 393 renal): 3.79 µM | TGI (RXF 393 renal): 15.2 µM | GI50 (SF-268 CNS): 2.53 µM | TGI (SF-268 CNS): 7.12 µM | GI50 (SF-295 CNS): 17.9 µM | TGI (SF-295 CNS): 63 µM | GI50 (SF-539 CNS): 2.38 µM | TGI (SF-539 CNS): 6.46 µM | GI50 (SK-MEL-2 melanoma): 2.72 µM | TGI (SK-MEL-2 melanoma): 7.28 µM | GI50 (SK-MEL-28 melanoma): 2 µM | TGI (SK-MEL-28 melanoma): 3.86 µM | GI50 (SK-MEL-5 melanoma): 3.69 µM | TGI (SK-MEL-5 melanoma): 15.8 µM | GI50 (SK-OV-3 ovarian): 3.22 µM | TGI (SK-OV-3 ovarian): 9.67 µM | GI50 (SN12C renal): 2.72 µM | TGI (SN12C renal): 8.21 µM | GI50 (SNB-19 CNS): 3.11 µM | TGI (SNB-19 CNS): 12.5 µM | GI50 (SNB-75 CNS): 1.56 µM | TGI (SNB-75 CNS): 3.49 µM | GI50 (SR leukemia): 3.11 µM | TGI (SR leukemia): > 100 µM | GI50 (SW-620 colon): 3.33 µM | TGI (SW-620 colon): 16.8 µM | GI50 (T-47D breast): 2.55 µM | TGI (T-47D breast): 8.78 µM | GI50 (TK-10 renal): 23.6 µM | TGI (TK-10 renal): > 100 µM | GI50 (U251 CNS): 2.29 µM | TGI (U251 CNS): 6.29 µM | GI50 (UACC-257 melanoma): 3.38 µM | TGI (UACC-257 melanoma): 37.6 µM | GI50 (UACC-62 melanoma): 2.21 µM | TGI (UACC-62 melanoma): 4.83 µM | GI50 (UO-31 renal): > 100 µM | TGI (UO-31 renal): > 100 µM
